Common to all, as to experiment: HotSpot kinase profiling
Holding throughout (type): biochemical

One assay addresses T1, Haspin (Homo sapiens, UniProt Q8TF76).
T1 construct: purchased Reaction Biology Corp
T1 sequence (Q8TF76 1-798): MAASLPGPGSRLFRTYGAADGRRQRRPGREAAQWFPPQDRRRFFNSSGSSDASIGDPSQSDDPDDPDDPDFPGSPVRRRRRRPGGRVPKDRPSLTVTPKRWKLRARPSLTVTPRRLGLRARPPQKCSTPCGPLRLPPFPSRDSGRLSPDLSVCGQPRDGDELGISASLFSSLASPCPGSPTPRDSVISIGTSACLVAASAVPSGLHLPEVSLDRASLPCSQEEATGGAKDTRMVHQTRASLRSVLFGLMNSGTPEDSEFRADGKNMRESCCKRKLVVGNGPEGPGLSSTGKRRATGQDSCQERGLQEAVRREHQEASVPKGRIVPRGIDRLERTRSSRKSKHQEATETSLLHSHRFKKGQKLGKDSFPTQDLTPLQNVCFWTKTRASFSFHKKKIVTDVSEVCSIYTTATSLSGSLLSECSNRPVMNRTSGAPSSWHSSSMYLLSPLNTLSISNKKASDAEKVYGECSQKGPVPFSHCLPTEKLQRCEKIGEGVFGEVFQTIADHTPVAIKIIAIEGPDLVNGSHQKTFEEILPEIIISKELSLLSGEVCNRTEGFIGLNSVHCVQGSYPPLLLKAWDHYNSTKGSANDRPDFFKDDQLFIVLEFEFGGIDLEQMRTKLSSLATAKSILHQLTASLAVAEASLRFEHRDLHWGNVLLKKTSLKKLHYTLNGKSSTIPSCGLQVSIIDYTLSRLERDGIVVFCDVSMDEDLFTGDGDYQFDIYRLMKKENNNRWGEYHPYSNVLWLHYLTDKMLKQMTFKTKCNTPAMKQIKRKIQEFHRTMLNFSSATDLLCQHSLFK
An outline of the steps:
(§1)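 Radio-isotope P81 filtration format. Substrate + required cofactors in reaction buffer, kinase added, 2 h RT. Stop, wash with 0.1% phosphoric acid, detect. % inhibition vs DMSO; mean of duplicates where repeated.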

The target of a further assay is T2, STK25/YSK1 (Homo sapiens, UniProt O00506).
T2 construct: purchased Reaction Biology Corp
The gist of the method: as §1

A further assay deals with T3, ERK1 (Homo sapiens, UniProt P27361).
T3 construct: purchased Reaction Biology Corp
An outline of the steps:
as §1

The target in the next assay is T4, PKCg (Homo sapiens, UniProt P05129).
T4 construct: purchased Reaction Biology Corp
An outline of the steps:
as §1

A further assay has as its target T5, TBK1 (Homo sapiens, UniProt Q9UHD2).
T5 construct: purchased Reaction Biology Corp
T5 sequence (Q9UHD2 1-729): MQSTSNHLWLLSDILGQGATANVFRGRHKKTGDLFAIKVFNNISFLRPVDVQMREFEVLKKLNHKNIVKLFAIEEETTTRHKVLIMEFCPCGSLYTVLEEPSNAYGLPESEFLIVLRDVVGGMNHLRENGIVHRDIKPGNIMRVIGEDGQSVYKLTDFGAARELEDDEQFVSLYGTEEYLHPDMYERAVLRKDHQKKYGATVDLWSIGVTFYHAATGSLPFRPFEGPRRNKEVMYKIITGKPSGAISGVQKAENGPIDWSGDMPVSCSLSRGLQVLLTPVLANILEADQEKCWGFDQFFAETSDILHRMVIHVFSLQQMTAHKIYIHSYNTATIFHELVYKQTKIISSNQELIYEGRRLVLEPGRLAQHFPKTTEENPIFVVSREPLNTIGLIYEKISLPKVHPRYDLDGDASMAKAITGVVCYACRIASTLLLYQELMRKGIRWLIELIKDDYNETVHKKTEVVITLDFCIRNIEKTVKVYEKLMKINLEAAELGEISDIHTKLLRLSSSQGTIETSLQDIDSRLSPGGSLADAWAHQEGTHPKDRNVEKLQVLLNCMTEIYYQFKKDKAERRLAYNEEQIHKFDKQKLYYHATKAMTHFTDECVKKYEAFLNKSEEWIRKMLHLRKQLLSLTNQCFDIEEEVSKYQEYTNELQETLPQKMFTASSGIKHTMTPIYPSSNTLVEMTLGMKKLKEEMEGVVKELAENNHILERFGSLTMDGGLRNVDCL
An outline of the steps: as §1

Another assay concerns the target T6, MLK1/MAP3K9 (Homo sapiens, UniProt P80192).
T6 construct: purchased Reaction Biology Corp
An outline of the steps:
as §1

In a further assay the target is T7, FLT1/VEGFR1 (Homo sapiens, UniProt P17948).
T7 construct: purchased Reaction Biology Corp
The gist of the method: as §1

[1] abbreviates: read-out: % Enzyme Activity (relative to DMSO controls) Run 1.
The mark [2] stands for this setting: read-out: % Enzyme Activity (relative to DMSO controls) Run 2.

The text below walks through data of patent US9492471B2, “Methods of treating a disease or disorder associated with Bruton'S Tyrosine Kinase” (Celgene Avilomics Research, Inc., priority 2013, dated 2016).

Like-named read-outs stand apart in the source and are kept apart here.

T7 sequence (P17948 27-1338): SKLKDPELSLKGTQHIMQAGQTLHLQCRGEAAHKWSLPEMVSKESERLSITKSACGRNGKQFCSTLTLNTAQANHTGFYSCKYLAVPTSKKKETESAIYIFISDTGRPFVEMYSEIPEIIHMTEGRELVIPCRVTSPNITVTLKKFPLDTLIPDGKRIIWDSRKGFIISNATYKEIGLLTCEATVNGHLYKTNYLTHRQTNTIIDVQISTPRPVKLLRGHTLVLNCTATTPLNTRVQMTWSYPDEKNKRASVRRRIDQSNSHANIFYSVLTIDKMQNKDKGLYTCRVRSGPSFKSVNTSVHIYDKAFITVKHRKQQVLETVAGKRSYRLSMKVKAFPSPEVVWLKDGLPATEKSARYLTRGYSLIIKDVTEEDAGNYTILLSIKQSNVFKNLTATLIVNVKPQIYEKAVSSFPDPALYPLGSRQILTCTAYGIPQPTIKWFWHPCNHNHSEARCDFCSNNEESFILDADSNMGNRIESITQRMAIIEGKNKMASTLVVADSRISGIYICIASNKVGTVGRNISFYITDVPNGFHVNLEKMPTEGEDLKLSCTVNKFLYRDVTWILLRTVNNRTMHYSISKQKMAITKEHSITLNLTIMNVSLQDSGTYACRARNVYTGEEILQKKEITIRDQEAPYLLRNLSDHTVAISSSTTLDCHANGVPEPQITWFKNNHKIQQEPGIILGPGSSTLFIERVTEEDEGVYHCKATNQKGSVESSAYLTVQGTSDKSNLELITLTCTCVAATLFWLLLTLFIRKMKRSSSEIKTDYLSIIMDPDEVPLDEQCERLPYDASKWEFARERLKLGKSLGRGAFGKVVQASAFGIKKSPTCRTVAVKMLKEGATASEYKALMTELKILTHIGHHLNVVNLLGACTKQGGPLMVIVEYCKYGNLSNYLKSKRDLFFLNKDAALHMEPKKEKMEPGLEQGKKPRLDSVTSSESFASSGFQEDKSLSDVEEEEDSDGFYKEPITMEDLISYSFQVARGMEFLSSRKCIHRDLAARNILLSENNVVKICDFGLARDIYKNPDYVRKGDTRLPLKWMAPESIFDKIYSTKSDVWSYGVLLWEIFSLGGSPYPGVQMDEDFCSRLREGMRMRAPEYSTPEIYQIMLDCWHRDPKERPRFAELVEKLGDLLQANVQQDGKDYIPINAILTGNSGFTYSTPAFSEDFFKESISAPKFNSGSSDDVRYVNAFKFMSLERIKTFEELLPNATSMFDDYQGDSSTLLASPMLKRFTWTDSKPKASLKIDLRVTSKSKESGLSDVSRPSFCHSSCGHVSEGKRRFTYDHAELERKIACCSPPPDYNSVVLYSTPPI
T3 sequence (P27361 whole entry): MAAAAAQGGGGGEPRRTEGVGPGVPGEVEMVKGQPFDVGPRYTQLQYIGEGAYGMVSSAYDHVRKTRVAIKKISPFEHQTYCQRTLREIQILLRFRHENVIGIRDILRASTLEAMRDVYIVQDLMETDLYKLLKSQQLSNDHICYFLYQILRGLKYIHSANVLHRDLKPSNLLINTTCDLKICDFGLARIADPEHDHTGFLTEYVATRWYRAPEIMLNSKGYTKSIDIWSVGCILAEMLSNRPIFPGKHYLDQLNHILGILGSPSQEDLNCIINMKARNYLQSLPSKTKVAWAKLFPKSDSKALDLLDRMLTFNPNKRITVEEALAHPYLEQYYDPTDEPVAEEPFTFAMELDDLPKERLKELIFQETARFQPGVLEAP
T2 sequence (O00506 whole entry): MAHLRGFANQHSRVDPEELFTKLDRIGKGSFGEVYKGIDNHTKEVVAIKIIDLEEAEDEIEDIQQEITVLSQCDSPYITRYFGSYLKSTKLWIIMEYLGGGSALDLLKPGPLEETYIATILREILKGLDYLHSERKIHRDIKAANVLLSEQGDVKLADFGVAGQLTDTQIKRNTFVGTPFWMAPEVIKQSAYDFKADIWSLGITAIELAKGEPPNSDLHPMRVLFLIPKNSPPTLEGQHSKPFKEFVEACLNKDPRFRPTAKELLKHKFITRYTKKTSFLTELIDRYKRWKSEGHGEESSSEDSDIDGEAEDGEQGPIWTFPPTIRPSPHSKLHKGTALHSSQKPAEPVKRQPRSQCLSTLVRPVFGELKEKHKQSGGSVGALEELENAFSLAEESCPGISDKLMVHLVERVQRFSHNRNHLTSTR
T6 sequence (P80192 whole entry): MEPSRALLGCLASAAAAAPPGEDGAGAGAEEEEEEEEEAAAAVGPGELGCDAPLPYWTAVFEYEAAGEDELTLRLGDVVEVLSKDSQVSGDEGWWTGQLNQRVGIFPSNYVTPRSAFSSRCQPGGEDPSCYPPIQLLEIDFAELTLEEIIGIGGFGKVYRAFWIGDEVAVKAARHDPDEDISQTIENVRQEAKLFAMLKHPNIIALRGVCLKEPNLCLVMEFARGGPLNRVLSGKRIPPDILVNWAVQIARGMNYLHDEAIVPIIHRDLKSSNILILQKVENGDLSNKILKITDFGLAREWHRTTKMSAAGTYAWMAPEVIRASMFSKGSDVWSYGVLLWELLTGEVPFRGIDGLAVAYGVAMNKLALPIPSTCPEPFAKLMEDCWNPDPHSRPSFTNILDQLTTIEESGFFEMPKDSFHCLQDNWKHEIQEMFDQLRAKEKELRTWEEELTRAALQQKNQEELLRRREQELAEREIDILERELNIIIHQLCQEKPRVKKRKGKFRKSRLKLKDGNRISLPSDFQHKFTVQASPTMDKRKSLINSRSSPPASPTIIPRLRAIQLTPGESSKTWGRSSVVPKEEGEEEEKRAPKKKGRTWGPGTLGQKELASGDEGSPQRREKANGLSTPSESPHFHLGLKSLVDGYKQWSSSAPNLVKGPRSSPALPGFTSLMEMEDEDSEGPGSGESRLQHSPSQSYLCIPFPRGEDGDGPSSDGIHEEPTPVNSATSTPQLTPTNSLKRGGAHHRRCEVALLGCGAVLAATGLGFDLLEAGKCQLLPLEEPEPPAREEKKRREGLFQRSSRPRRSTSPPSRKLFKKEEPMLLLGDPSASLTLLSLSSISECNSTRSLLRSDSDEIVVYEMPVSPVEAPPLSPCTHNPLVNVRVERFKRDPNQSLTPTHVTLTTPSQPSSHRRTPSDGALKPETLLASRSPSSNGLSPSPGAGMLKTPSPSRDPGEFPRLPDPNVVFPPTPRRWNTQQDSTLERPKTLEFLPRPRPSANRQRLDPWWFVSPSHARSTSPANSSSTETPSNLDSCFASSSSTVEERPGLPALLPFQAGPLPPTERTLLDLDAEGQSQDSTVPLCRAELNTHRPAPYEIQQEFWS

As usually defined, the inhibition is the percentage by which the read-out fell short of the control. Regarding `C=CC(=O)Nc1cccc(Nc2nc(Nc3ccc(OCCOC)c(F)c3)ncc2F)c1` [Compound 2], the inhibition at 3 µM stood at 9.77% against Haspin; 5.72% against STK25/YSK1; 1.32% at ERK1; 16% against PKCg; 41.3% against TBK1; 85.7% against MLK1/MAP3K9. In addition, on FLT1/VEGFR1, the inhibition at 3 µM turned out to be 18.6%. Besides, the remaining activity at 3 µM at Haspin (setting [1]) is 90.6%; at Haspin (setting [2]) it was 89.9%; at STK25/YSK1 (setting [1]), 94.5%; on STK25/YSK1 (setting [2]), 94.1%; at ERK1 (setting [1]) it was 97.4%; at ERK1 (setting [2]), 99.9%. The remaining activity at 3 µM stood at 83.9% at PKCg (setting [1]); 84.2% at PKCg (setting [2]); 58.1% at TBK1 (setting [1]); 59.2% on TBK1 (setting [2]); 14.5% on MLK1/MAP3K9 (setting [1]); 14.1% at MLK1/MAP3K9 (setting [2]). Further, the remaining activity at 3 µM on FLT1/VEGFR1 (setting [1]) was 83.6%; on FLT1/VEGFR1 (setting [2]) it was 79.2%.
